# Test results: the supplement of paper PMC10307832
# What was measured:
# Test in all cases: relative viability (nuclei count vs DMSO), 5 days (fraction); higher = more cells survive
# Bexarotene + Linsitinib = compound: C=C(c1ccc(C(=O)O)cc1)c1cc2c(cc1C)C(C)(C)CCC2(C)C [Bexarotene] + C[C@]1(O)C[C@@H](c2nc(-c3ccc4ccc(-c5ccccc5)nc4c3)c3c(N)nccn32)C1 [Linsitinib] (partner 1 µM)
# Procedure, shortened: (§1)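 Each reported value is a median over duplicate plates. It expresses relative viability: treated-well nuclei count divided by vehicle-well nuclei count. Lung cancer cell lines in 1536-well plates were dosed by pin tool a day after seeding, alone with one drug or with a fixed anchor-drug dose plus five library-drug doses (not always all listed) in √10 steps, and nuclei were counted after 5 days.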
# Bexarotene + Pemetrexed = compound: C=C(c1ccc(C(=O)O)cc1)c1cc2c(cc1C)C(C)(C)CCC2(C)C [Bexarotene] + Nc1nc2[nH]cc(CCc3ccc(C(=O)N[C@@H](CCC(=O)O)C(=O)O)cc3)c2c(=O)[nH]1 [Pemetrexed] (partner 0.2 µM)
# Procedure, shortened: as §1
# Bexarotene + Vorinostat = compound: C=C(c1ccc(C(=O)O)cc1)c1cc2c(cc1C)C(C)(C)CCC2(C)C [Bexarotene] + O=C(CCCCCCC(=O)Nc1ccccc1)NO [Vorinostat] (partner 1 µM)
# Procedure, shortened: as §1
# Bexarotene + Olaparib = compound: C=C(c1ccc(C(=O)O)cc1)c1cc2c(cc1C)C(C)(C)CCC2(C)C [Bexarotene] + O=C(c1cc(Cc2n[nH]c(=O)c3ccccc23)ccc1F)N1CCN(C(=O)C2CC2)CC1 [Olaparib] (partner 8 µM)
# Procedure, shortened: as §1
Cell Line,relative viability (Bexarotene + Linsitinib; first compound 0.08 µM),relative viability (Bexarotene + Linsitinib; first compound 0.253 µM),relative viability (Bexarotene + Linsitinib; first compound 0.8 µM),relative viability (Bexarotene + Linsitinib; first compound 2.53 µM),relative viability (Bexarotene + Linsitinib; first compound 8 µM),relative viability (Bexarotene + Pemetrexed; first compound 0.08 µM),relative viability (Bexarotene + Pemetrexed; first compound 0.253 µM),relative viability (Bexarotene + Pemetrexed; first compound 0.8 µM),relative viability (Bexarotene + Pemetrexed; first compound 2.53 µM),relative viability (Bexarotene + Pemetrexed; first compound 8 µM),relative viability (Bexarotene + Vorinostat; first compound 0.08 µM),relative viability (Bexarotene + Vorinostat; first compound 0.253 µM),relative viability (Bexarotene + Vorinostat; first compound 0.8 µM),relative viability (Bexarotene + Vorinostat; first compound 2.53 µM),relative viability (Bexarotene + Vorinostat; first compound 8 µM),relative viability (Bexarotene + Olaparib; first compound 0.08 µM),relative viability (Bexarotene + Olaparib; first compound 0.253 µM),relative viability (Bexarotene + Olaparib; first compound 0.8 µM),relative viability (Bexarotene + Olaparib; first compound 2.53 µM),relative viability (Bexarotene + Olaparib; first compound 8 µM)
NCI-H650,0.869,0.926,0.793,0.645,0.83,1.09,0.887,0.882,0.832,0.918,0.542,0.497,0.429,0.457,0.467,0.325,0.432,0.354,0.356,0.382
NCI-H661,0.533,0.611,0.437,0.587,0.549,1.05,0.91,0.892,0.872,0.869,0.876,0.814,0.878,0.861,0.808,0.769,0.756,0.73,0.751,0.707
NCI-H838,1.13,1.11,1.03,1.17,1.06,0.275,0.254,0.272,0.251,0.249,0.764,0.767,0.742,0.585,0.693,0.809,0.784,0.74,0.725,0.745
NCI-H1355,1.02,0.945,0.801,0.923,0.764,1.14,1.15,0.983,1.13,1.01,0.672,0.724,0.584,0.604,0.619,0.805,0.76,0.781,0.785,0.778
NCI-H1395,1.15,1.08,1.23,1.07,1.11,0.885,0.929,0.808,0.9,0.931,0.963,0.775,0.723,0.49,0.73,0.441,0.543,0.476,0.459,0.504
NCI-H1437,1.01,1.09,0.93,1,0.898,0.352,0.302,0.338,0.296,0.322,0.814,1.01,0.886,0.872,0.84,0.613,0.638,0.599,0.623,0.597
NCI-H1651,1.12,0.934,1.02,1.08,0.984,0.709,0.487,0.61,0.617,0.622,0.693,0.604,0.62,0.602,0.608,0.201,0.226,0.208,0.206,0.197
NCI-H1666,0.889,0.783,0.844,0.931,0.661,0.8,0.912,0.736,0.844,0.7,0.815,0.959,0.829,0.916,0.791,0.714,0.754,0.694,0.691,0.63
NCI-H1734,0.906,0.857,0.81,0.794,0.806,0.438,0.419,0.454,0.361,0.363,0.779,0.834,0.808,0.65,0.657,0.669,0.648,0.573,0.709,0.633
NCI-H1755,1.05,1.1,1.08,0.992,1.02,0.451,0.458,0.498,0.452,0.425,0.85,0.991,0.815,0.652,0.662,0.982,0.957,1.03,0.951,0.887
NCI-H1793,1.08,0.959,1.03,0.914,0.897,0.972,0.828,0.79,0.845,0.852,0.666,0.784,0.611,0.604,0.601,1.06,0.966,0.787,0.903,0.695
NCI-H1915,1.16,1.12,1.03,1.04,1.07,0.519,0.492,0.54,0.473,0.439,0.544,0.579,0.482,0.513,0.513,0.265,0.262,0.284,0.278,0.242
NCI-H1944,1.5,1.36,1.4,1.41,1.19,0.822,0.758,0.857,0.724,0.75,0.74,0.683,0.669,0.675,0.532,0.625,0.573,0.617,0.602,0.494
NCI-H1975,1.06,1.12,1.08,1.22,1.1,0.327,0.331,0.305,0.334,0.323,0.884,0.758,0.725,0.754,0.795,1.03,0.906,0.783,0.851,0.836
NCI-H1993,0.718,0.665,0.608,0.656,0.774,0.714,0.611,0.537,0.534,0.514,0.851,0.691,0.783,0.716,0.672,0.979,1.08,0.94,1.01,0.896
NCI-H2009,1.33,1.36,1.13,1.18,1.13,1.09,1.04,1.12,0.973,0.998,0.692,0.86,0.845,0.76,0.834,0.772,0.697,0.727,0.664,0.663

Cell Line,relative viability (Bexarotene + Linsitinib; first compound 0.08 µM),relative viability (Bexarotene + Linsitinib; first compound 0.253 µM),relative viability (Bexarotene + Linsitinib; first compound 0.8 µM),relative viability (Bexarotene + Linsitinib; first compound 2.53 µM),relative viability (Bexarotene + Linsitinib; first compound 8 µM),relative viability (Bexarotene + Pemetrexed; first compound 0.08 µM),relative viability (Bexarotene + Pemetrexed; first compound 0.253 µM),relative viability (Bexarotene + Pemetrexed; first compound 0.8 µM),relative viability (Bexarotene + Pemetrexed; first compound 2.53 µM),relative viability (Bexarotene + Pemetrexed; first compound 8 µM),relative viability (Bexarotene + Vorinostat; first compound 0.08 µM),relative viability (Bexarotene + Vorinostat; first compound 0.253 µM),relative viability (Bexarotene + Vorinostat; first compound 0.8 µM),relative viability (Bexarotene + Vorinostat; first compound 2.53 µM),relative viability (Bexarotene + Vorinostat; first compound 8 µM),relative viability (Bexarotene + Olaparib; first compound 0.08 µM),relative viability (Bexarotene + Olaparib; first compound 0.253 µM),relative viability (Bexarotene + Olaparib; first compound 0.8 µM),relative viability (Bexarotene + Olaparib; first compound 2.53 µM),relative viability (Bexarotene + Olaparib; first compound 8 µM)
NCI-H2023,0.785,0.911,0.735,0.683,0.625,0.283,0.251,0.202,0.202,0.196,0.644,0.941,0.619,0.57,0.528,0.461,0.542,0.406,0.428,0.288
NCI-H2085,0.776,0.793,0.797,0.685,0.712,0.832,0.808,0.753,0.751,0.74,0.672,0.804,0.69,0.719,0.692,0.691,0.709,0.693,0.676,0.694
NCI-H2087,1.01,0.963,0.89,0.896,0.827,0.681,0.743,0.696,0.652,0.549,1.07,0.765,0.642,1.09,0.841,0.689,0.72,0.582,0.481,0.58
NCI-H2126,0.8,0.762,0.789,0.791,0.753,0.822,0.679,0.621,0.742,0.636,0.882,0.902,0.703,0.762,0.751,0.927,0.912,0.855,0.837,0.816
NCI-H2228,0.905,0.818,0.586,0.656,0.749,0.36,0.358,0.365,0.212,0.376,0.784,0.691,0.787,0.665,0.887,0.825,0.799,0.631,0.591,0.492
NCI-H2347,1.06,1.02,0.749,0.975,1.02,0.484,0.424,0.399,0.445,0.462,0.703,0.622,0.513,0.681,0.557,0.583,0.614,0.552,0.42,0.647
NCI-H2405,1.1,0.946,0.695,0.973,0.912,1.25,1.09,0.939,0.977,1.07,1.06,1.01,0.839,0.755,0.951,0.93,0.849,0.7,0.852,0.83
NCI-H3122,1.14,1.08,1.1,1.07,1.14,0.219,0.202,0.194,0.217,0.213,1.17,1,1.01,1.12,1.11,0.667,0.751,0.617,0.645,0.618
PC-3 [JPC-3],0.98,1.03,0.829,0.882,0.827,1.07,1.05,1.05,0.541,1,0.963,0.639,0.737,0.417,0.599,1.01,1.1,1.02,1.06,0.938
PC-14,0.99,1.06,0.935,1,0.934,0.127,0.144,0.145,0.145,0.16,0.882,0.844,0.643,0.741,0.636,0.268,0.349,0.243,0.213,0.214
RERF-LC-KJ,0.8,0.827,0.755,0.782,0.83,0.506,0.513,0.501,0.506,0.47,0.689,0.707,0.641,0.7,0.609,0.991,0.885,0.812,0.888,0.865
SK-LU-1,1.22,1.12,–,0.93,1.23,1.03,1.03,–,0.944,0.923,0.924,0.866,–,0.734,0.672,0.557,0.43,–,0.417,0.399
SK-MES-1,1.15,1.18,0.983,1.05,0.97,1.04,1.12,1.08,0.961,0.735,1.2,1.28,1.11,1.06,0.936,0.798,0.832,0.696,0.628,0.564
SW 1573,0.777,0.608,0.681,0.754,0.536,0.911,0.814,0.897,0.751,0.847,0.918,0.645,1.11,0.635,0.746,0.537,0.461,0.499,0.445,0.41
UMC-11,1.08,1.01,1.04,0.978,0.998,0.77,0.764,0.786,0.77,0.803,0.357,0.379,0.408,0.377,0.346,0.387,0.425,0.525,0.353,0.37
